Drawing on paper PMC6961122 (Bioorganic & Medicinal Chemistry, 2020), this text covers EC50 for 46 compounds.

Experiment [1] relates to T98 cells. In words: Cell viability assay (PrestoBlue, 5 d) in T98 glioma cells. Format: cell-based. The note with it: library screen, 5 d treatment, mean of three independent experiments in triplicates, read-out: EC50 T98 ± SEM. Here is the method: (§1) The antiproliferative activity of a total of 100 compounds was tested against U87 and T98 glioma cell lines, using TMZ[3] and the Topoisomerase I inhibitor SN-38[18] as positive controls. Cells were treated with the library members for 5 d at three different concentrations (3, 30 and 300 µM) and cell viability determined using the PrestoBlue reagent. Half-maximal effective concentration (EC50) values were calculated from the corresponding dose-response curves and plotted in Fig. 2a as a heatmap to facilitate data analysis, with black meaning no activity and dark to light green to yellow transitions indicating decreasing EC50 values (=increasing potencies). Table 1 of the Suppl. Data contains the corresponding EC50 values ± SEM.
(§2) INK128 and SN-38 were used as positive controls. […] Structurally, these derivatives differed in the size of the alkyl group of the N1 position and the presence or absence of an oxygen atom in that moiety (see Suppl. Data).
(§3) U87 and T98 cells (ATCC) were cultured in DMEM (Gibco), supplemented with 10% (v/v) FBS (Gibco) and 2 mM L-Glutamine (Gibco) in a standard incubator (95% humidity, 5% CO2), and subcultured twice per week through trypsinization. G317 patient-derived glioma cells were established by the Glioma Cellular Genetics Resource (gcgr.org.uk) funded by Cancer Research UK. Ethics approval for use of patient-derived cells and early access confirmation to reagents from the Glioma Cellular Genetics Resource assured that all ethical issues according to UK legislation are fulfilled. G317 were cultured in DMEM/HAMS-F12 (Sigma) supplemented with 1.5 g L^−1 D-(+)-Glucose (Sigma), MEM non-essential aminoacids (Gibco), 0.015% (w/v) Penicillin-Streptomycin (Gibco), 0.012% (w/v) BSA (Gibco), 0.1 mM β-mercaptoethanol (Gibco), B27 (Gibco) and N2 supplements (Gibco). Cells were detached using accutase solution (Sigma) and subcultured once per week. Before adding to the cells, medium was supplemented with 10 ng ml^−1 mouse EGF (Preprotech), 10 ng ml^−1 human FGF (Preprotech), and 1 µg ml^−1 Laminin (Sigma).
(§4) 1 × 10^3 U87 cells/well, 5 × 10^2 T98 cells/well, 1 × 10^4 G317 cells/well, 1 × 10^4 HBVP cells/well and 1 × 10^4 bEnd3 cells/well were seeded in 96-well plates. After 48 h in culture, cells were treated with the inhibitors for 5 d. For GI50 determination, the viability of a triplicate sample of each experiment before treatment was measured with the PrestoBlue Reagent (Invitrogen), to establish a basepoint 0% of growth. […] ZIP Synergy scores were obtained with Synergy finder.[22] Viability percentage, EC50 and GI50 values were obtained using GraphPad Prism version 8.0.0 for Windows, GraphPad Software, San Diego, California USA, www.graphpad.com.

Experiment [2] has as its system U87 cells. The experiment is described as follows: Cell viability assay (PrestoBlue, 5 d) in U87 glioma cells. Format: cell-based. The settings on record: library screen, 5 d treatment, mean of three independent experiments in triplicates, read-out: EC50 U87 ± SEM. The method, then: as §1, §2, §3, §4

SMILES strings stand for the structures. Where two headings read alike, the source gives them in different places.

Turning to `COC(Cn1nc(-c2cnc3[nH]ccc3c2)c2c(N)ncnc21)OC` [eCF308], the EC50 (in general, the concentration at which the effect is half-maximal) in experiment [1] (Homo sapiens, T98, 120 h) stood at 7.34 ± 1.56 µM; in experiment [2] (Homo sapiens, U-87 MG, 120 h) it was 6.16 ± 1.22 µM.

Take `Nc1ncc(-c2ccc(-c3nn(CC4CCCC4)c4ncnc(N)c34)cc2)o1` [eCF341]: the EC50 in experiment [1] came out at 26.2 µM; in experiment [2] it was 20.3 ± 2.63 µM.

As to `CN(C)C1CCN(CCn2nc(-c3cnc4[nH]ccc4c3)c3c(N)ncnc32)CC1` [eCF502], the EC50 in experiment [1] is 17.6 ± 3.93 µM; in experiment [2] it was 15.2 ± 2.36 µM.

In the case of `COc1cc(-c2nn(CCN3CCC(N(C)C)CC3)c3ncnc(N)c23)ccc1NC(=O)OC(C)(C)C` [eCF506], the EC50 in experiment [1] (Homo sapiens, T98, 120 h) came to 9.97 ± 4.88 µM; in experiment [2] (Homo sapiens, U-87 MG, 120 h) it was 13.6 ± 0.809 µM.

Regarding `COc1cc(-c2nn(CCN3CCC(N4CCCC4)CC3)c3ncnc(N)c23)ccc1NC(=O)OC(C)(C)C` [eCF518], the EC50 in experiment [1] was 3.48 ± 0.567 µM; in experiment [2], 12 ± 0.168 µM.

Turning to `COc1cc(-c2nn(CCN3CCC(N4CCCCC4)CC3)c3ncnc(N)c23)ccc1NC(=O)OC(C)(C)C` [eCF519], the EC50 was found to be 3.14 ± 0.331 µM in experiment [1] and 17 ± 2.37 µM in experiment [2].

Consider `COc1cc(-c2nn(CCN3CCC(N(C)C)CC3)c3ncnc(N)c23)ccc1NC(=O)CC(C)(C)C` [eCF526], for which the EC50 in experiment [1] and in experiment [2] was more than 30 µM in each case.

`COc1cc(-c2nn(CCN3CCC(N(C)C)CC3)c3ncnc(N)c23)ccc1NC(=O)Cc1ccccc1` [eCF530]: the EC50 is 22.8 ± 3.21 µM in experiment [1] and more than 30 µM in experiment [2].

As for `COc1cc(-c2nn(CCN3CCC(N(C)C)CC3)c3ncnc(N)c23)ccc1NC(=O)CCc1ccccc1` [eCF531], the EC50 in experiment [1] was 11.1 ± 1.1 µM; in experiment [2], 22.6 ± 5.38 µM.

Turning to `COc1cc(-c2nn(CCN3CCC(N(C)C)CC3)c3ncnc(N)c23)ccc1NC(=O)Oc1ccccc1` [eCF532], the EC50 turned out to be 9.1 ± 1.37 µM in experiment [1] and 29.2 ± 3.88 µM in experiment [2].

As to `COc1cc(-c2nn(CCN3CCC(N(C)C)CC3)c3ncnc(N)c23)ccc1NC(=O)OCc1ccccc1` [eCF533], the EC50 in experiment [1] was found to be 3.79 ± 0.519 µM; in experiment [2] it was 8.22 ± 0.671 µM.

For `COc1cc(-c2nn(CCN3CCC(N(C)C)CC3)c3ncnc(N)c23)ccc1NC(=O)Oc1ccccc1` [eCF535], the results for the EC50 in experiment [1] and in experiment [2] were 16.7 ± 2.8 µM and more than 30 µM, respectively.

Consider `COc1cc(-c2nn(CCN3CCC(N(C)C)CC3)c3ncnc(N)c23)ccc1NC(=O)NC(C)(C)C` [eCF537], for which the half-maximal effective concentration (EC50) in experiment [1] was 17.6 ± 3.24 µM; in experiment [2], more than 30 µM.

Regarding `COc1cc(-c2nn(CCN3CCC(N(C)C)CC3)c3ncnc(N)c23)ccc1NC(=O)NC(C)(C)C` [eCF540], the EC50 was 24.8 ± 2.68 µM in experiment [1] and more than 30 µM in experiment [2].

Regarding `CN(C)C1CCN(CCn2nc(-c3cccc(NC(=O)OC(C)(C)C)c3)c3c(N)ncnc32)CC1` [eCF542], the EC50 in experiment [1] and in experiment [2] was more than 30 µM each time.

Consider `CN(C)C1CCN(CCn2nc(-c3ccc(NC(=O)OC(C)(C)C)cc3)c3c(N)ncnc32)CC1` [eCF543], for which the EC50 in experiment [1] was 11.4 ± 1.44 µM; in experiment [2], more than 30 µM.

Take `CN(C)C1CCN(CCn2nc(-c3ccc4c(ccn4C(=O)OC(C)(C)C)c3)c3c(N)ncnc32)CC1` [eCF548]: the EC50 in experiment [1] is 6.87 ± 1.77 µM; in experiment [2], 7.18 ± 1.5 µM.

Consider `CN(C)C1CCN(CCn2nc(-c3ccc(NC(=O)OC(C)(C)C)nc3)c3c(N)ncnc32)CC1` [eCF549], for which the EC50 in experiment [1] and in experiment [2] was more than 30 µM in each case.

Turning to `CN(C)C1CCN(CCn2nc(-c3ccc(CC(=O)OC(C)(C)C)cc3)c3c(N)ncnc32)CC1` [eCF553], the EC50 in experiment [1] was 6.58 ± 2.18 µM; in experiment [2], more than 30 µM.

`CN(C)C1CCN(CCn2nc(-c3ccc(CC(=O)O)cc3)c3c(N)ncnc32)CC1` [eCF556]: the EC50 in experiment [1] and in experiment [2] was more than 30 µM each time.

For the compound `COc1ccc(-c2nn(CCN3CCC(N(C)C)CC3)c3ncnc(N)c23)cc1NC(=O)OC(C)(C)C` [eCF558], the EC50 in experiment [1] and in experiment [2] was more than 30 µM each time.

Regarding `CN(C)C1CCN(CCn2nc(-c3ccc(NC(=O)OC(C)(C)C)c(O)c3)c3c(N)ncnc32)CC1` [eCF562], the EC50 in experiment [1] and in experiment [2] was more than 30 µM in each case.

Regarding `COc1cc(-c2nn(CCN3CCC(N(C)C)CC3)c3ncnc(N)c23)ccc1NCc1ccccc1` [eCF575], the EC50 in experiment [1] and in experiment [2] was more than 30 µM each time.

Regarding `CN(C)C1CCN(CCn2nc(-c3ccc(NCc4ccccn4)cc3)c3c(N)ncnc32)CC1` [eCF576], the EC50 in experiment [1] and in experiment [2] was more than 30 µM in each case.

In the case of `COc1cc(-c2nn(CCN3CCC(N(C)C)CC3)c3ncnc(N)c23)ccc1NC(=O)OC(C)(C)C` [eCF581], the EC50 in experiment [1] and in experiment [2] was more than 30 µM throughout.

On to `COc1cc(-c2nn(CCN3CCC(N4CCCC4)CC3)c3ncnc(N)c23)ccc1NC(=O)OC(C)(C)C` [eCF598], for which the EC50 is 16.4 ± 9.53 µM in experiment [1] and more than 30 µM in experiment [2].

Take `COc1cc(-c2nn(CCN3CCC(N4CCCCC4)CC3)c3ncnc(N)c23)ccc1NC(=O)OC(C)(C)C` [eCF599]: the EC50 in experiment [1] is 23 ± 13.4 µM; in experiment [2], more than 30 µM.

Regarding `CN(C)C1CCN(CCn2nc(-c3ccc(CC#N)cc3)c3c(N)ncnc32)CC1` [eCF600], the EC50 in experiment [1] and in experiment [2] was more than 30 µM throughout.

In the case of `COc1cc(-c2nn(CCN3CCCC(N(C)C)C3)c3ncnc(N)c23)ccc1NC(=O)OC(C)(C)C` (centres unmarked) [eCF603], the EC50 in experiment [1] and in experiment [2] was more than 30 µM in each case.

For the compound `COc1cc(-c2nn(CCN3CCC(N(C)C)CC3)c3ncnc(N)c23)ccc1NC(=O)N(C)C(C)(C)C` [eCF608], the EC50 in experiment [1] came to 14.4 ± 7.53 µM; in experiment [2], 21.1 ± 3.02 µM.

Take `CNc1ncc2c(-c3ccc(OC)c(OC)c3)nn(CC3CCCC3)c2n1` [eSM104]: the results for the EC50 in experiment [1] and in experiment [2] were 17.5 ± 2.14 µM and more than 30 µM, respectively.

In the case of `CNc1ncc2c(-c3ccc(OC)cc3)nn(CC3CCCC3)c2n1` [eSM105], the EC50 in experiment [1] worked out at 6.36 ± 0.563 µM; in experiment [2], 20.9 ± 1.73 µM.

With `CNc1ncc2c(-c3ccc(C(N)=O)cc3)nn(CC3CCCC3)c2n1` [eSM106], the concentration giving a half-maximal response (EC50) in experiment [1] and in experiment [2] was more than 30 µM each time.

On to `CNc1ncc2c(-c3ccc(N4CCNCC4)nc3)nn(CC3CCCC3)c2n1` [eSM107], for which the EC50 in experiment [1] was found to be 2.42 ± 0.504 µM; in experiment [2], 3.33 ± 0.166 µM.

`CNc1ncc2c(-c3cccc(C(N)=O)c3)nn(CC3CCCC3)c2n1` [eSM108]: the EC50 is more than 30 µM in experiment [1] and 23.8 ± 2.78 µM in experiment [2].

For the compound `CNc1ncc2c(-c3ccc(OC)cc3)nn(CC3OCCO3)c2n1` [eSM110], the EC50 in experiment [1] and in experiment [2] was more than 30 µM throughout.

As for `CNc1ncc2c(-c3ccc(-c4ccccc4)cc3)nn(CC3OCCO3)c2n1` [eSM111], the EC50 in experiment [1] and in experiment [2] was more than 30 µM each time.

On to `CNc1ncc2c(-c3ccc(N4CCNCC4)nc3)nn(CC3OCCO3)c2n1` [eSM112], for which the EC50 in experiment [1] came to 9.26 ± 0.465 µM; in experiment [2], 21.3 ± 2.35 µM.

Regarding `CNc1ncc2c(-c3ccc(F)cc3)nn(CC3OCCO3)c2n1` [eSM113], the EC50 in experiment [1] and in experiment [2] was more than 30 µM each time.

On to `CNc1ncc2c(-c3ccc(C(F)(F)F)cc3)nn(CC3OCCO3)c2n1` [eSM114], for which the EC50 in experiment [1] and in experiment [2] was more than 30 µM in each case.

As to `CNc1ncc2c(-c3ccc(N4CCNCC4)nc3)nn(Cc3cn(Cc4ccccc4)nn3)c2n1` [eSM119], the EC50 is 11.3 ± 0.882 µM in experiment [1] and 9.73 ± 1.22 µM in experiment [2].

Regarding `CNc1ncc2c(-c3ccc(N4CCNCC4)nc3)nn(Cc3cn(C4CCCC4O)nn3)c2n1` (centres unmarked) [eSM121], the EC50 in experiment [1] was found to be 26.3 ± 1.81 µM; in experiment [2], 16.5 ± 1.88 µM.

Consider `CNc1ncc2c(-c3ccc(N4CCNCC4)nc3)nn(Cc3cn(C4CCCCC4O)nn3)c2n1` (centres unmarked) [eSM123], for which the results for the EC50 in experiment [1] and in experiment [2] were 24.2 ± 3.6 µM and 25.4 ± 4.66 µM, respectively.

Regarding `CCNc1ncc2c(-c3ccc(N4CCNCC4)nc3)nn(CC3OCCO3)c2n1` [eSM133], the EC50 was 15.6 ± 2.75 µM in experiment [1] and more than 30 µM in experiment [2].

Take `CNc1ncc2c(-c3ccc(N4CCN(C)CC4)nc3)nn(Cc3cn(Cc4ccccc4)nn3)c2n1` [eSM134]: the values for the EC50 in experiment [1] and in experiment [2] were 18.8 ± 3.57 µM and 18.9 ± 5.27 µM, respectively.

Turning to `CNc1ncc2c(-c3ccc(N4CCNCC4)cc3)nn(Cc3cn(Cc4ccccc4)nn3)c2n1` [eSM135], the EC50 in experiment [1] was 6.26 ± 1.39 µM; in experiment [2], 13 ± 0.291 µM.
